Source: the kinase profiling compilation of Christmann-Franck et al. (2016)

Assays:
Assay in all cases: KINOMEscan competition binding
Settings in all cases: compound 10.0 µM
[1] = target: DDR1 (human) (UniProt Q08345)
[2] = target: MAP3K1 (human) (UniProt Q13233)
[3] = target: MAP2K5 (human) (UniProt Q13163)
[4] = target: STK39 (human) (UniProt Q9UEW8)
[5] = test system: EGFR (human), P00533 [L861Q]
[6] = target: BTK (human) (UniProt Q06187)
[7] = target: OXSR1 (human) (UniProt O95747)
[8] = target: SIK3 (human) (UniProt Q9Y2K2)
[9] = target: NIM1 (human) (UniProt Q8IY84)
[10] = target: PRKCI (human) (UniProt P41743)
[11] = target: TAOK2 (human) (UniProt Q9UL54)
[12] = target: CRK2 (P.falciparum) (UniProt P61075)
[13] = target: DYRK1A (human) (UniProt Q13627)
[14] = target: SGK3 (human) (UniProt Q96BR1)
[15] = target: MAST1 (human) (UniProt Q9Y2H9)
[16] = target: PIP5K1C (human) (UniProt O60331)
[17] = target: MAP3K2 (human) (UniProt Q9Y2U5)
[18] = target: EGFR (human) (UniProt P00533)
[19] = target: BRAF (human) (UniProt P15056)
[20] = target: MYLK3 (human) (UniProt Q32MK0)
[21] = target: NEK11 (human) (UniProt Q8NG66)
[22] = target: PI4KB (human) (UniProt Q9UBF8)
Chain of PI4KB (human) (Q9UBF8 whole entry, looked up): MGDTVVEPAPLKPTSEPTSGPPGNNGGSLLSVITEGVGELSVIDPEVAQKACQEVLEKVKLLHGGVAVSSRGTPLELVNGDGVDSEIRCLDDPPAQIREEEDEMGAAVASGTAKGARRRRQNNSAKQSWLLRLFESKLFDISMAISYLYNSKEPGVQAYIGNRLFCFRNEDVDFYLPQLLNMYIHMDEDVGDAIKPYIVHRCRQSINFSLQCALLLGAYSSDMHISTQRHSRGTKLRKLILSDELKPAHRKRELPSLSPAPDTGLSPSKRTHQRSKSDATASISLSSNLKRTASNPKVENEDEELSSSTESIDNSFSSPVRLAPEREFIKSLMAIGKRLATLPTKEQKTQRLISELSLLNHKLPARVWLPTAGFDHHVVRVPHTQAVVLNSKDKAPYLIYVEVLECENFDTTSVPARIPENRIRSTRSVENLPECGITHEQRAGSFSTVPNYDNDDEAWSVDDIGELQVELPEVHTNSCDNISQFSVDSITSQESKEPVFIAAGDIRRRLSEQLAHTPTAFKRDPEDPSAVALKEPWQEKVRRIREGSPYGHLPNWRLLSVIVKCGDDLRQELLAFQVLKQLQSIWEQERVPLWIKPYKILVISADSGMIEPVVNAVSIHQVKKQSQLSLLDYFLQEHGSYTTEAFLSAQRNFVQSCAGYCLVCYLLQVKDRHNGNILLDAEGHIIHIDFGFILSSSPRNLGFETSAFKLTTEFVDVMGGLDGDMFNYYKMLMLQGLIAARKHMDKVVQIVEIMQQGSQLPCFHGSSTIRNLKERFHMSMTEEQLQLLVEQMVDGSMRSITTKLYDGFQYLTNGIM

[23] = target: MAP3K6 (human) (UniProt O95382)
Chain of MAP3K6 (human) (O95382 whole entry, looked up): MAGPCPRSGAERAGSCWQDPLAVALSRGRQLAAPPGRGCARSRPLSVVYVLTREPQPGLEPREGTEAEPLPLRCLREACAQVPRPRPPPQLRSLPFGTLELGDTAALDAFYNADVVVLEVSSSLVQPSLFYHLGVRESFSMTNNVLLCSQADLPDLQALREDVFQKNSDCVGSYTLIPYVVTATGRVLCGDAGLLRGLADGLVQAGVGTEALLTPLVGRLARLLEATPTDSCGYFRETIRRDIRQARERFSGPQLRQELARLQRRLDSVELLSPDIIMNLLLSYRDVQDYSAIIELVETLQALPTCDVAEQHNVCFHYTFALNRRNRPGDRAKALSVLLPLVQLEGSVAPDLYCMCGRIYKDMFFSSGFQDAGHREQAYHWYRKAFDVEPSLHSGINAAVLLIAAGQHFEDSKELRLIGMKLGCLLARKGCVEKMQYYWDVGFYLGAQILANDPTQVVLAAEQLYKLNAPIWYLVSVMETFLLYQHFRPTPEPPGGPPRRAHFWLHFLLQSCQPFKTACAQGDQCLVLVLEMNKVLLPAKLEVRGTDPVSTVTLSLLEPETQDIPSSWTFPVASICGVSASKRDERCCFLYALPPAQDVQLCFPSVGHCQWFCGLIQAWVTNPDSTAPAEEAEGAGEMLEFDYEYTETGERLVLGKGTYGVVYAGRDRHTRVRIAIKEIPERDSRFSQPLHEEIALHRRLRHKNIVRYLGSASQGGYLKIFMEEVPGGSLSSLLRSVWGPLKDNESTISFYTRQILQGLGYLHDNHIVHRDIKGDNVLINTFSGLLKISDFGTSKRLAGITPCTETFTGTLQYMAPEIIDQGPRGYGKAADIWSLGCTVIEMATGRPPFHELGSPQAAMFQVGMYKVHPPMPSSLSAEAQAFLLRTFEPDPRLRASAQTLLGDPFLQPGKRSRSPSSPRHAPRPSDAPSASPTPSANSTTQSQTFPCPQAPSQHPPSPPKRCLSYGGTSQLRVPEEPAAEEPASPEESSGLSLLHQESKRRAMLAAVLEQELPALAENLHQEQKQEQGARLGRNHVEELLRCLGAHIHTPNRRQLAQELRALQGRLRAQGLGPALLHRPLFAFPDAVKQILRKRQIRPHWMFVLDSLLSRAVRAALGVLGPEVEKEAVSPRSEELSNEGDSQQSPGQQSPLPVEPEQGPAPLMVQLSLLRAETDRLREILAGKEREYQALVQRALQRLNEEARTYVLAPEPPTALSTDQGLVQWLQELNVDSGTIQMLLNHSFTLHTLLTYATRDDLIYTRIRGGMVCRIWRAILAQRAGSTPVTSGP

[24] = target: HIPK3 (human) (UniProt Q9H422)
[25] = target: CASK (human) (UniProt O14936)
[26] = target: GRK7 (human) (UniProt Q8WTQ7)
[27] = target: MTOR (human) (UniProt P42345)
[28] = test system: EGFR (human), P00533 [746-750 del]
[29] = target: DSTYK (human) (UniProt Q6XUX3)
Chain of DSTYK (human) (Q6XUX3 whole entry, looked up): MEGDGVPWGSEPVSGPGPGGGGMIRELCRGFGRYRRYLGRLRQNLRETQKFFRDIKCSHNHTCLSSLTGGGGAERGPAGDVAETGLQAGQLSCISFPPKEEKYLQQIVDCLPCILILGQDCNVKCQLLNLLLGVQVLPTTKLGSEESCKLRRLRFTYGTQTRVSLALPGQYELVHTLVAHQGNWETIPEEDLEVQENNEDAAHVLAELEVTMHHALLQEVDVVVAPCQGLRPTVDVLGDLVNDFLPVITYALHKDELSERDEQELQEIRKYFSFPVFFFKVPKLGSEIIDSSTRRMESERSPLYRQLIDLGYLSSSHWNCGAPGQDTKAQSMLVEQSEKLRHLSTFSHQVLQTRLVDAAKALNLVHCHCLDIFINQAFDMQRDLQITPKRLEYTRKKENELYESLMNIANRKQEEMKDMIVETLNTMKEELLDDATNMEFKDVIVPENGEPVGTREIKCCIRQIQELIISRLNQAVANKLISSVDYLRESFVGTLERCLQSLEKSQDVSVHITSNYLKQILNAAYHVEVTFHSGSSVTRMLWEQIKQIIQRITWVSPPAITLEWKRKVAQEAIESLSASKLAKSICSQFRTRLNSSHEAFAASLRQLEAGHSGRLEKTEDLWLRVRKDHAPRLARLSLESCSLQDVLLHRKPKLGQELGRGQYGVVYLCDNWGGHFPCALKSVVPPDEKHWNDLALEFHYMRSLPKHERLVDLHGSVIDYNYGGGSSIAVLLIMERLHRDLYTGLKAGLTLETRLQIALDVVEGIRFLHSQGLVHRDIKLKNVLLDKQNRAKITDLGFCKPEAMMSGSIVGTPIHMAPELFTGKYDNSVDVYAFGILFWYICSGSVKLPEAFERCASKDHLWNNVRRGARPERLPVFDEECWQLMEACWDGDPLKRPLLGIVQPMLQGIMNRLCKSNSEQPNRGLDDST

[30] = test system: FLT3 (human), P36888 [K663Q]
[31] = target: CDK4 CCND3 (human) (UniProt P11802+P30281)
[32] = target: KIT (human) (UniProt P10721)
[33] = target: PRPF4B (human) (UniProt Q13523)
Chain of PRPF4B (human) (Q13523 whole entry, looked up): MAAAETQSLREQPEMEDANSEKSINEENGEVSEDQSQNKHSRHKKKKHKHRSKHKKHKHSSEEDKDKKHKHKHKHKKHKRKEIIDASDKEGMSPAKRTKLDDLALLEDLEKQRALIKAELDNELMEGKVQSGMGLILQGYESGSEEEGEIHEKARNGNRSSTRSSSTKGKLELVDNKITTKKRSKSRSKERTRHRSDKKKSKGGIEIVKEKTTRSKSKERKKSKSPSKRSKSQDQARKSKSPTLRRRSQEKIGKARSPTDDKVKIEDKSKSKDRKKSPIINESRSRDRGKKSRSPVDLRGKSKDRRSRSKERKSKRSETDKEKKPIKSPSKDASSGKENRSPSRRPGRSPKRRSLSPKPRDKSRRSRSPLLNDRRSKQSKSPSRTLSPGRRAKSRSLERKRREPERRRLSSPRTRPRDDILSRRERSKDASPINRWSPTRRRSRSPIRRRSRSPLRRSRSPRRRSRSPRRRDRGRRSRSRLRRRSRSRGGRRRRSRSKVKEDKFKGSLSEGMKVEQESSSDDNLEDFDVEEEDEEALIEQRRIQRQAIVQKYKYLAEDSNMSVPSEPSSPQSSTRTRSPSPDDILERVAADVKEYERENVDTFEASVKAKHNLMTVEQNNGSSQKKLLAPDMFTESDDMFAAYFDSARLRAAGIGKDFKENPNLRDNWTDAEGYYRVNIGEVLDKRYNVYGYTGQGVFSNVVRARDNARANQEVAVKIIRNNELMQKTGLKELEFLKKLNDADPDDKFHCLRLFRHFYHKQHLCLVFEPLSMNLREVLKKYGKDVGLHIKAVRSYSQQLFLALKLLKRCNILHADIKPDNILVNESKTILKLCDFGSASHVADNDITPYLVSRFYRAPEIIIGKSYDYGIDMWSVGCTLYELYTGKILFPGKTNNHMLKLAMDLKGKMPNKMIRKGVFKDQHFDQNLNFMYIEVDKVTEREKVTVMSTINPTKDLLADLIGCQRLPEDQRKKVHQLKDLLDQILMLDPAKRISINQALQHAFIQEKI

[34] = target: SBK1 (human) (UniProt Q52WX2)
[35] = target: STK38 (human) (UniProt Q15208)
[36] = target: PIK3CA (human) (UniProt P42336)
[37] = test system: PIK3CA (human), P42336 [I800L]
[38] = test system: PIK3CA (human), P42336 [Q546K]
Chain of PIK3CA (human), P42336 [Q546K] (P42336 whole entry Q546K, looked up): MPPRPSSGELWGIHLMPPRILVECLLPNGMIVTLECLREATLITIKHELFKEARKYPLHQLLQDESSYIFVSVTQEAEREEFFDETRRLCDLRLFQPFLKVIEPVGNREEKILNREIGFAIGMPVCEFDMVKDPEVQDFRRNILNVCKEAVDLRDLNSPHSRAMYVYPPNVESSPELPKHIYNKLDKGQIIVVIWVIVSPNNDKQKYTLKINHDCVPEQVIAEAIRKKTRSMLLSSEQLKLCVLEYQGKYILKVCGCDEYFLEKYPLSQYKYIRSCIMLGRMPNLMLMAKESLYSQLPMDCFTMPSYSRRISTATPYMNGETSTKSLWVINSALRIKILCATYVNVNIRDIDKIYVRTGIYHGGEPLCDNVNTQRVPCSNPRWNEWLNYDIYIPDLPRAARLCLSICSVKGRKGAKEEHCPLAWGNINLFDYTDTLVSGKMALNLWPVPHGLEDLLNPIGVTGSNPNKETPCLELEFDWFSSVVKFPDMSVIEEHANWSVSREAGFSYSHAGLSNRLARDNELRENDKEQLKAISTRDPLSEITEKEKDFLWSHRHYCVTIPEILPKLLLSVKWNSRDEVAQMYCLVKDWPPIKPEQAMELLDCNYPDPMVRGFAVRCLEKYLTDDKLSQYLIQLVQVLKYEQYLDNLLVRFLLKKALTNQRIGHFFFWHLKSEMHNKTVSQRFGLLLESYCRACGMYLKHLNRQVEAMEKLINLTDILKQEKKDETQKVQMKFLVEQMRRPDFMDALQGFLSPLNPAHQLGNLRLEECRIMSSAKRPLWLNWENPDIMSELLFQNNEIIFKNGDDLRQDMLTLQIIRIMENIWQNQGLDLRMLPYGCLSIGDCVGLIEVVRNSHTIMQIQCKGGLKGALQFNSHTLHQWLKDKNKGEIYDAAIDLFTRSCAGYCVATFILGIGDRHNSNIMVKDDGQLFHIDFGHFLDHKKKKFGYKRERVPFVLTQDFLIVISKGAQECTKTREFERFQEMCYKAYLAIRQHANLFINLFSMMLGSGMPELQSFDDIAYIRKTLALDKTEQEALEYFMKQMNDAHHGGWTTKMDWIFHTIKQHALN

[39] = test system: PIK3CA (human), P42336 [E545A]
[40] = test system: PIK3CA (human), P42336 [H1047Y]

| Compound | kinase still bound, per cent of control [2] | kinase still bound, per cent of control [3] | kinase still bound, per cent of control [4] | kinase still bound, per cent of control [6] | kinase still bound, per cent of control [7] | kinase still bound, per cent of control [8] | kinase still bound, per cent of control [9] | kinase still bound, per cent of control [10] | kinase still bound, per cent of control [11] | kinase still bound, per cent of control [12] | kinase still bound, per cent of control [13] | kinase still bound, per cent of control [14] | kinase still bound, per cent of control [15] | kinase still bound, per cent of control [16] | kinase still bound, per cent of control [19] | kinase still bound, per cent of control [21] | kinase still bound, per cent of control [22] | kinase still bound, per cent of control [23] | kinase still bound, per cent of control [25] | kinase still bound, per cent of control [26] | other results |
| --- | --- | --- | --- | --- | --- | --- | --- | --- | --- | --- | --- | --- | --- | --- | --- | --- | --- | --- | --- | --- | --- |
| Cc1cc([C@@H](C)Nc2ccccc2C(=O)O)c2nc(N3CCOCC3)cc(=O)n2c1 | 90% | 100% | 100% | 97% | 100% | 95% | 100% | 100% | 94% | 98% | 90% | 86% | 100% | 63% | 100% | 100% | 100% | 95% | 92% | 57% | kinase still bound, per cent of control [1]: 100%; kinase still bound, per cent of control [5]: 100%; kinase still bound, per cent of control [17]: 100%; kinase still bound, per cent of control [18]: 96%; kinase still bound, per cent of control [20]: 100%; kinase still bound, per cent of control [24]: 89%; kinase still bound, per cent of control [27]: 11%; kinase still bound, per cent of control [28]: 100%; kinase still bound, per cent of control [29]: 100%; kinase still bound, per cent of control [30]: 13%; kinase still bound, per cent of control [31]: 100%; kinase still bound, per cent of control [32]: 91%; kinase still bound, per cent of control [33]: 71%; kinase still bound, per cent of control [34]: 100%; kinase still bound, per cent of control [35]: 100% |
| N#Cc1c(NC(=O)c2cccc3ccccc23)sc2c1CCCC2 | 59% | 100% | 100% | 90% | 100% | 65% | 100% | 63% | 100% | 100% | 100% | 92% | 100% | 100% | 100% | 100% | 100% | 93% | 71% | 88% | kinase still bound, per cent of control [1]: 71%; kinase still bound, per cent of control [36]: 99%; kinase still bound, per cent of control [37]: 98%; kinase still bound, per cent of control [17]: 100%; kinase still bound, per cent of control [38]: 79%; kinase still bound, per cent of control [20]: 100%; kinase still bound, per cent of control [39]: 80%; kinase still bound, per cent of control [24]: 43%; kinase still bound, per cent of control [40]: 100%; kinase still bound, per cent of control [27]: 100%; kinase still bound, per cent of control [29]: 100%; kinase still bound, per cent of control [30]: 93%; kinase still bound, per cent of control [31]: 84%; kinase still bound, per cent of control [33]: 100%; kinase still bound, per cent of control [34]: 100%; kinase still bound, per cent of control [35]: 100% |
| CCOc1cc2ncc(C#N)c(Nc3ccc(OCc4ccccn4)c(Cl)c3)c2cc1NC(=O)/C=C/CN(C)C | 96% | 1.8% | 84% | 4.4% | 54% | 73% | 90% | 90% | 92% | 100% | 99% | 100% | 100% | 100% | 95% | 64% | 100% | 87% | 100% | 100% | kinase still bound, per cent of control [36]: 86%; kinase still bound, per cent of control [38]: 100%; kinase still bound, per cent of control [20]: 86%; kinase still bound, per cent of control [39]: 100%; kinase still bound, per cent of control [27]: 100%; kinase still bound, per cent of control [29]: 69%; kinase still bound, per cent of control [31]: 78%; kinase still bound, per cent of control [32]: 80%; kinase still bound, per cent of control [33]: 92%; kinase still bound, per cent of control [34]: 100%; kinase still bound, per cent of control [35]: 81% |
| O=C(NOC[C@H](O)CO)c1ccc(F)c(F)c1Nc1ccc(I)cc1F | 54% | 86% | 96% | 87% | 100% | 52% | 100% | 70% | 100% | 100% | 100% | 89% | 100% | 100% | 98% | 91% | 100% | 95% | 67% | 100% | kinase still bound, per cent of control [1]: 50%; kinase still bound, per cent of control [36]: 56%; kinase still bound, per cent of control [37]: 33%; kinase still bound, per cent of control [17]: 100%; kinase still bound, per cent of control [38]: 41%; kinase still bound, per cent of control [39]: 45%; kinase still bound, per cent of control [24]: 49%; kinase still bound, per cent of control [40]: 57%; kinase still bound, per cent of control [27]: 100%; kinase still bound, per cent of control [29]: 100%; kinase still bound, per cent of control [31]: 84%; kinase still bound, per cent of control [32]: 92%; kinase still bound, per cent of control [33]: 77%; kinase still bound, per cent of control [34]: 100%; kinase still bound, per cent of control [35]: 100% |
